Results: patent publication EP0918774B9, “ANDROGEN RECEPTOR MODULATOR COMPOUNDS AND METHODS” (LIGAND PHARMACEUTICALS INCORPORATED, priority 1996, dated 1997)
Like-named read-outs stand apart in the source and are kept apart here.

Tests used:
human AR = biological target: T1, human AR (Homo sapiens, UniProt P10275); test: cell-based; format: cell-based
T1 construct: expressed in transfected cells; host or cells: CV-1 cells (African green monkey kidney fibroblasts), transient calcium phosphate transfection
T1 sequence (P10275 1-920): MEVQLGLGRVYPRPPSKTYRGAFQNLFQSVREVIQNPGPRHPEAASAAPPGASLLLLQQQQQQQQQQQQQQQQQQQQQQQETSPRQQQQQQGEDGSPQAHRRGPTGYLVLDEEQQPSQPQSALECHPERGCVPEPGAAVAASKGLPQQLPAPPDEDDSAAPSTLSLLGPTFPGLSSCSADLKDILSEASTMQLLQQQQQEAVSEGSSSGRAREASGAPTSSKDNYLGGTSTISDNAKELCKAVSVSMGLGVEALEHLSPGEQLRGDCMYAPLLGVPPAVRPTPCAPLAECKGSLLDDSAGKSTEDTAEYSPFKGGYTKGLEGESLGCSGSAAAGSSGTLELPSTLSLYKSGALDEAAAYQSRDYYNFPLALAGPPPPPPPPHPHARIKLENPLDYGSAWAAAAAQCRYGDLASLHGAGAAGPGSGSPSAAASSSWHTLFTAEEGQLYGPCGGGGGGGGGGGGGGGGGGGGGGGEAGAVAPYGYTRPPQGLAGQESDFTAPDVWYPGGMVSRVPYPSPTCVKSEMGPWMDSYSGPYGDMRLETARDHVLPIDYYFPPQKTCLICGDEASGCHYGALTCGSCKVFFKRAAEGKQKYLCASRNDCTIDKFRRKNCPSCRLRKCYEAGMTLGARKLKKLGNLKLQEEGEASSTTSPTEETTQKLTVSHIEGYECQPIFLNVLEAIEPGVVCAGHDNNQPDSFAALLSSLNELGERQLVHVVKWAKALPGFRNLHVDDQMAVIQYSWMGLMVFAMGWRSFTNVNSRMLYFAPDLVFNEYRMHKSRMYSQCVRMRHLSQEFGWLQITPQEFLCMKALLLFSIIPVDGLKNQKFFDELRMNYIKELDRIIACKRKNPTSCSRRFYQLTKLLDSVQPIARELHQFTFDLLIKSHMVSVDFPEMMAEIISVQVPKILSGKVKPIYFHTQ
From the text: The co-transfection assay provides a method for identifying functional agonists and partial agonists which mimic, or antagonists which inhibit, the effect of native hormones, and quantifying their activity for responsive IR proteins. In this regard, the co-transfection assay mimics an in vivo system in the laboratory. Importantly, activity in the co-transfection assay correlates very well with known in vivo activity, such that the co-transfection assay functions as a qualitative and quantitative predictor of a tested compounds in vivo pharmacology. See, e.g., T. Berger et al. 41 J. Steroid Biochem. Molec.
(§1) CV-1 cells (African green monkey kidney fibroblasts) were cultured in the presence of Dulbecco's Modified Eagle Medium (DMEM) supplemented with 10% charcoal resinstripped fetal bovine serum then transferred to 96-well microtiter plates one day prior to transfection.
The reporter plasmid, MTV-LUC, contains the cDNA for firefly luciferase (LUC) under control of the mouse mammary tumor virus (MTV) long terminal repeat, a conditional promoter containing an androgen response element. See e.g, Berger et al. supra. In addition, pRS-β-Gal, coding for constitutive expression of E. colβ-galactosidase (β-Gal), was included as an internal control for evaluation of transfection efficiency and compound toxicity.
(§2) Three to four replicates were used for each sample.
(§3) After 40 hours, the cells were washed with PBS, lysed with a Triton X-100-based buffer and assayed for LUC and β-Gal activities using a luminometer or spectrophotometer, respectively. For each replicate, the normalized response (NR) was calculated as: LUC response/β-Gal rate where β-Gal rate = β-Gal•1x10^-5/β-Gal incubation time.

PR [1] = biological target: T2, PR (Homo sapiens, UniProt P06401); test: Co-transfection assay, PR agonist mode; format: cell-based; design: expressed in transfected cells; host or cells: CV-1 cells
T2 sequence (P06401 1-933): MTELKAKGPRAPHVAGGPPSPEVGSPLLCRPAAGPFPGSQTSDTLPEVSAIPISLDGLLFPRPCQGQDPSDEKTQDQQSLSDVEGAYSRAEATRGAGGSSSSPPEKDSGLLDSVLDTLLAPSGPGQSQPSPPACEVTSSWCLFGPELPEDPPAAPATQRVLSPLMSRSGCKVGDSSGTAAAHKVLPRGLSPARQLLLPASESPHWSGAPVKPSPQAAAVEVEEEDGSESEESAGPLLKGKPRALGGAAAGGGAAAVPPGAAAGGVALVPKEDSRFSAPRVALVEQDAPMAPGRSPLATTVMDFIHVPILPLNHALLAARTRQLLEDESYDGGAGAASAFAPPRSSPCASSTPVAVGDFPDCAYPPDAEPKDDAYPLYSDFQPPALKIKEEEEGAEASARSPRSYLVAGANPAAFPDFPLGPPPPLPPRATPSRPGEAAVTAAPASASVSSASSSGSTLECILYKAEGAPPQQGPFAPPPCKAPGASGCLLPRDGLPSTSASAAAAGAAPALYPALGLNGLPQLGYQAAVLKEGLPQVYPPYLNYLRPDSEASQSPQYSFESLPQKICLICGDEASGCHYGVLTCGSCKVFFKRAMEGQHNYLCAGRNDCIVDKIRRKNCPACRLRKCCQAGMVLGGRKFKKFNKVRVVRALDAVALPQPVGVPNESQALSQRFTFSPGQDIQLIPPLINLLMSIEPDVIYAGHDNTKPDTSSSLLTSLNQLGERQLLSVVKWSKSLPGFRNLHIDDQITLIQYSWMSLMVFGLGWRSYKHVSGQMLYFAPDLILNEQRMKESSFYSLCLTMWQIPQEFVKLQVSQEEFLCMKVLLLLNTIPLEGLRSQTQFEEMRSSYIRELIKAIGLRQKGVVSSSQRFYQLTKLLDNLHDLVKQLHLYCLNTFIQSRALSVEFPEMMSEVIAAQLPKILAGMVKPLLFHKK
Description: as §1, §2, §3

PR [2] = biological target: T2, PR; test: cell-based

| SMILES | EC50 (human AR) [µM] | IC50 (human AR) [µM] | AR Antagonist CV-1 Cells Efficacy (%) (human AR; % of maximal inhibition, fixed DHT at EC50, na = not active) | AR Agonist CV-1 Cells Efficacy (%) (human AR; percent maximal response relative to reference agonist DHT, na = not active) | EC50 (human AR; read-out: AR Potency Agon, Table 2, na = not active) [µM] | EC50 (PR [1]) [µM] | AR Agonist CV-1 Cells Efficacy (%) (human AR) | AR Antagonist CV-1 Cells Efficacy (%) (human AR) | EC50 (human AR; read-out: AR Potency Agon) [µM] | IC50 (PR [2]) [µM] |
| --- | --- | --- | --- | --- | --- | --- | --- | --- | --- | --- |
| CC12CCCN1c1cc3[nH]c(=O)c(F)c(C(F)(F)F)c3cc1CC2 (racemic) [Compound 102, (R/S)-3-Fluoro-6,7,7a,11-tetrahydro-7a-methyl-4-trifluoromethyl-2-pyridono[5,6-g]pyrrolidino[1,2-a]quinoline] | > 10 | 0.029 | 86 | na (not active (i.e. efficacy of <20 and potency of >10,000)) | > 10 | > 10 | – | – | – | – |
| CC12CCCN1c1cc3nc(O)cc(C(F)(F)F)c3cc1CC2 (racemic) [Compound 101, (R/S)-6,7,7a,11-Tetrahydro-7a-methyl-4-trifluoromethyl-2-pyridono[5,6-g]pyrrolidino[1,2-a]quinoline] | > 10 | 0.362 | – | – | – | > 10 | na (key: na: not active (i.e. efficacy of <20 and potency of >10,000)) | 80 | > 10 | > 10 |
